Broadly, the pEC50 is −log10 of the EC50, conventionally taken in molar units.

Molecules are shown by their SMILES. pEC50: −log10 of the molar value.

Experiment [1] deals with T1, recombinant F508del V470 CFTR in Fischer rat thyroid (FRT) cells (Homo sapiens, UniProt P13569, DEL508-508).
T1 construct: expressed in transfected cells
The experiment can be described thus: FRT ion flux assay of F508del CFTR potentiation. The format is cell-based. The settings on record: FRT cells expressing F508del V470 CFTR, forskolin 20 uM, 27° C. pre-incubation. The procedure, abridged:
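Potentiation read as YFP quench ~21 s after iodide buffer addition, as second/initial fluorescence ratio normalised between DMSO (0%) and reference potentiator (100%).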

Experiment [2] deals with T2, CFTR in F508del/F508del primary CF hBE cells (Homo sapiens, UniProt P13569, DEL508-508).
T2 construct: Primary cystic fibrosis human bronchial epithelial (CF hBE) cells were expanded and cultured; endogenous in cells; host or cells: primary CF human bronchial epithelial cells, genotype F508del/F508del
T2 sequence (P13569 with tags, fused parts or gaps DEL508-508): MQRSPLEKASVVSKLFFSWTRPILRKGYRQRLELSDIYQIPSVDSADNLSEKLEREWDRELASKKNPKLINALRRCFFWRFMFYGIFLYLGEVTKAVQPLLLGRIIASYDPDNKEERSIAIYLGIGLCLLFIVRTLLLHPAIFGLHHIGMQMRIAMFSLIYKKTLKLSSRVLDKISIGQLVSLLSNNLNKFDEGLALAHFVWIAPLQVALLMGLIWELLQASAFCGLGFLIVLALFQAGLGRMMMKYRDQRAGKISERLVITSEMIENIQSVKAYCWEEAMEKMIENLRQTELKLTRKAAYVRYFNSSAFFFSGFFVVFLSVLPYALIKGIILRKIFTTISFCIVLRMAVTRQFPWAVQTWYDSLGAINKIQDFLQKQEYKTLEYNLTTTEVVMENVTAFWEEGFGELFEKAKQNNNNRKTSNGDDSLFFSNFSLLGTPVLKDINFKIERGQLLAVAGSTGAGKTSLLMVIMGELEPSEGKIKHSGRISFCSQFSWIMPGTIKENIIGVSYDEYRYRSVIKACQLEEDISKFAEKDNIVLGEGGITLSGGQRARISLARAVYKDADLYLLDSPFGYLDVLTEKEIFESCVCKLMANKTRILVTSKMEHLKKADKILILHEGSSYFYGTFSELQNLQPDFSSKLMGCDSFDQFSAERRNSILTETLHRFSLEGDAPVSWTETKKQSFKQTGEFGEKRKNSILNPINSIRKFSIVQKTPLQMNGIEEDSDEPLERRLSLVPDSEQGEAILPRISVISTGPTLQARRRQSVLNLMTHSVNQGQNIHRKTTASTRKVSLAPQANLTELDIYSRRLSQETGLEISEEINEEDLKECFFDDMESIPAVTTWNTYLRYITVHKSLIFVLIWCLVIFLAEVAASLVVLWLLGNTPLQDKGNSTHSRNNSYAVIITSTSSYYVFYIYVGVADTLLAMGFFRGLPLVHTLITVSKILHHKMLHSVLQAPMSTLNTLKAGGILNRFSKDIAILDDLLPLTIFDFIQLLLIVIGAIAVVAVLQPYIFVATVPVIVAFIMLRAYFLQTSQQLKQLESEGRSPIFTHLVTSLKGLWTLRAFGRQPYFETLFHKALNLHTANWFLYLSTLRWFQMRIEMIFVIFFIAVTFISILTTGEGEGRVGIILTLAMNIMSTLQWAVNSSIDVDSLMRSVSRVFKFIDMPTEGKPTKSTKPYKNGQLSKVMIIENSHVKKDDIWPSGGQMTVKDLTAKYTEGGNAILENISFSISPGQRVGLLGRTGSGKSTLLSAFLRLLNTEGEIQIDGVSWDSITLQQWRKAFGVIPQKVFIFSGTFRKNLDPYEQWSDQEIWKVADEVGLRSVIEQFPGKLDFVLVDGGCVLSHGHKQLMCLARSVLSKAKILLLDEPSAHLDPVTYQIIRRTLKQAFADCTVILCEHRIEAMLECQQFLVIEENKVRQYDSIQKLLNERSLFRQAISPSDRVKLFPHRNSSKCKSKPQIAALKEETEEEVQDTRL
The experiment can be described thus: Ussing chamber electrophysiology assay of CFTR potentiation in F508del/F508del CF bronchial epithelial cells (27° C.). The format is cell-based. In outline: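 Short-circuit current was recorded under zero-voltage clamp across primary CF bronchial epithelia cultured >30 days at air/liquid interface, bathed apically and basolaterally in HEPES-buffered saline. Sequential additions: amiloride (30 uM), forskolin (10 uM), compound at 4 increasing levels, CFTRinh-172 (20 uM). Responses normalised between DMSO (0%) and maximal positive-control potentiator (100%).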

T1 sequence (P13569 with tags, fused parts or gaps DEL508-508): as above

Consider `CCC(c1cnn(-c2ccccc2F)c1)n1c(C#N)c(-c2cnc(C(F)(F)F)nc2)c2c(N)ncnc21` (single isomer, unassigned) [Example 4, 4-Amino-7-{1-[1-(2-fluorophenyl)-1H-pyrazol-4-yl]propyl}-5-[2-(trifluoromethyl)pyrimidin-5-yl]-7H-pyrrolo[2,3-d] pyrimidine-6-carbonitrile], for which the values for the pEC50 in experiment [1] and in experiment [2] were 9.21 and 9.25, respectively.
`COc1ncccc1-c1cn(C2(c3cn(-c4ccccc4F)nn3)CC2)c2ncnc(N)c12` [Example 298, 7-{1-[1-(2-Fluorophenyl)-1H-1,2,3-triazol-4-yl]cyclopropyl}-5-(2-methoxypyridin-3-yl)-7H-pyrrolo[2,3-d]pyrimidin-4-amine]: the pEC50 in experiment [1] is 6.74; in experiment [2] it was 6.61.
On the same counts, the results for `CCC(c1cn(-c2ccc(F)c(F)c2)nn1)n1cc(-c2cnc(C(F)(F)F)nc2)c2c(N)ncnc21` (single isomer, unassigned; enantiomer 2) [Example 154, 7-{1-[1-(3,4-Difluorophenyl)-1H-1,2,3-triazol-4-yl]propyl}-5-[2-(trifluoromethyl)pyrimidin-5-yl]-7H-pyrrolo[2,3-d]pyrimidin-4-amine, enantiomer 2] are 6.20 and 6.49.
On the same counts, the results for `CC(c1cnn(-c2ccc(F)cc2F)c1)n1c(C#N)c(-c2cnc(C(F)(F)F)nc2)c2c(N)ncnc21` (single isomer, unassigned) [Example 8, 4-Amino-7-{1-[1-(2,4-difluorophenyl)-1H-pyrazol-4-yl]ethyl}-5-[2-(trifluoromethyl)pyrimidin-5-yl]-7H-pyrrolo[2,3-d] pyrimidine-6-carbonitrile] are 7.45 and 7.81.
On the same counts, the results for `CC(c1cnn(-c2ccccc2F)c1)n1c(C#N)c(-c2cnc(C(F)(F)F)nc2)c2c(N)ncnc21` (single isomer, unassigned) [Example 6, 4-Amino-7-(1-(1-(2-fluorophenyl)-1H-pyrazol-4-yl)ethyl)-5-(2-(trifluoromethyl)pyrimidin-5-yl)-7H-pyrrolo[2,3-d] pyrimidine-6-carbonitrile] are 9.00 and 8.92.
Consider `Nc1ncnc2c1c(-c1ccc(Cl)cc1)cn2Cc1cc(C2CCCCC2)no1` [Example 269, 5-(4-Chlorophenyl)-7-[(3-cyclohexyl-1,2-oxazol-5-yl)methyl]-7H-pyrrolo[2,3-d]pyrimidin-4-amine], for which the pEC50 is 6.32 in experiment [1] and 7.64 in experiment [2].
On to `CCC(c1cn(-c2ccccc2F)nn1)n1cc(-c2cc(F)cnc2OC)c2c(N)ncnc21` (stereo not shown) [Example 223, 7-{1-[1-(2-Fluorophenyl)-1H-1,2,3-triazol-4-yl]propyl}-5-(5-fluoro-2-methoxypyridin-3-yl)-7H-pyrrolo[2,3-d]pyrimidin-4-amine], for which the pEC50 is 7.95 in experiment [1] and 8.14 in experiment [2].
Take `COc1ncccc1-c1cn(Cc2nnc(-c3ccccc3)[nH]2)c2ncnc(N)c12` [Example 272, 5-(2-Methoxypyridin-3-yl)-7-[(5-phenyl-4H-1,2,4-triazol-3-yl)methyl]-7H-pyrrolo[2,3-d]pyrimidin-4-amine]: the negative-log EC50 (pEC50) in experiment [1] is 6.40; in experiment [2], 6.08.
As to `N#Cc1c(-c2ccc(Cl)cc2)c2c(N)ncnc2n1Cc1cn(-c2ccccc2F)nn1` [Example 26, 4-Amino-5-(4-chlorophenyl)-7-{[1-(2-fluorophenyl)-1H-1,2,3-triazol-4-yl]methyl}-7H-pyrrolo[2,3-d]pyrimidine-6-carbonitrile], the pEC50 in experiment [1] was 6.89; in experiment [2] it was 7.45.
As for `COc1ncc(-c2cn(C(C)c3cc(-c4ccccc4F)no3)c3ncnc(N)c23)cn1` (single isomer, unassigned; (-)) [Example 183, (−) 7-{1-[3-(2-fluorophenyl)-1,2-oxazol-5-yl]ethyl}-5-(2-methoxypyrimidin-5-yl)-7H-pyrrolo[2,3-d]pyrimidin-4-amine], the pEC50 in experiment [1] was 6.29; in experiment [2], 6.52.
Regarding `CC(c1cn(-c2ccccc2F)nn1)n1cc(-c2ccc(Cl)cc2)c2c(N)ncnc21` (stereo not shown) [Example 58, 5-(4-Chlorophenyl)-7-{1-[1-(2-fluorophenyl)-1H-1,2,3-triazol-4-yl]ethyl}-7H-pyrrolo[2,3-d]pyrimidin-4-amine], the pEC50 in experiment [1] is 6.63; in experiment [2], 7.54.
For the compound `Nc1ncnc2c1c(-c1ccc(Cl)cc1)cn2Cc1nc(-c2ccccc2)c[nH]1` [Example 282, 5-(4-Chlorophenyl)-7-[(4-phenyl-1H-imidazol-2-yl)methyl]-7H-pyrrolo[2,3-d]pyrimidin-4-amine], the pEC50 in experiment [1] is 6.04; in experiment [2], 6.66.
On the same counts, the results for `CCC(c1cn(-c2cc(F)cc(F)c2)nn1)n1cc(-c2cnc(C(F)(F)F)nc2)c2c(N)ncnc21` (single isomer, unassigned; enantiomer 1) [Example 311, 7-{1-[1-(3,5-Difluorophenyl)-1H-1,2,3-triazol-4-yl]propyl}-5-[2-(trifluoromethyl)pyrimidin-5-yl]-7H-pyrrolo[2,3-d]pyrimidin-4-amine, enantiomer 1] are 6.60 and 6.95.
The corresponding values for `CCC(c1cn(-c2ccc(F)cc2F)nn1)n1cc(-c2cc(F)cnc2OC)c2c(N)ncnc21` (single isomer, unassigned; enantiomer 2) [Example 164, 7-{1-[1-(2,4-Difluorophenyl)-1H-1,2,3-triazol-4-yl]propyl}-5-(5-fluoro-2-methoxypyridin-3-yl)-7H-pyrrolo[2,3-d]pyrimidin-4-amine, enantiomer 2] are 8.09 and 8.34.
On the same counts, the results for `N#Cc1c(-c2cnc(C(F)F)nc2)c2c(N)ncnc2n1Cc1cnn(-c2ccccc2F)c1` [Example 30, 4-Amino-5-[2-(difluoromethyl)pyrimidin-5-yl]-7-{[1-(2-fluorophenyl)-1H-pyrazol-4-yl]methyl}-7H-pyrrolo[2,3-d]pyrimidine-6-carbonitrile] are 9.23 and 8.69.
`CC(c1cn(-c2ccccc2F)nn1)n1c(C#N)c(-c2cnc(C(F)(F)F)nc2)c2c(N)ncnc21` (single isomer, unassigned) [Example 10, 4-Amino-7-{1-[1-(2-fluorophenyl)-1H-1,2,3-triazol-4-yl]ethyl}-5-[2-(trifluoromethyl)pyrimidin-5-yl]-7H-pyrrolo[2,3-d]pyrimidine-6-carbonitrile]: the results for the pEC50 in experiment [1] and in experiment [2] were 7.11 and 7.15, respectively.
The corresponding values for `CC(c1cc(-c2ccccc2F)no1)n1cc(-c2ccc(-c3ncns3)cc2)c2c(N)ncnc21` (stereo not shown) [Example 107, 7-{1-[3-(2-Fluorophenyl)-1,2-oxazol-5-yl]ethyl}-5-[4-(1,2,4-thiadiazol-5-yl)phenyl]-7H-pyrrolo[2,3-d]pyrimidin-4-amine] are 6.76 and 6.91.
On the same counts, the results for `CCC(c1cn(-c2cccc(F)c2F)nn1)n1cc(-c2cncnc2OC)c2c(N)ncnc21` (single isomer, unassigned; enantiomer 1) [Example 305, (−) 7-{1-[1-(2,3-Difluorophenyl)-1H-1,2,3-triazol-4-yl]propyl}-5-(4-methoxypyrimidin-5-yl)-7H-pyrrolo[2,3-d]pyrimidin-4-amine, enantiomer 1] are 6.26 and 6.43.
The corresponding values for `CC(c1cc(-c2cccc(F)c2)no1)n1cc(-c2ccc(Cl)cc2)c2c(N)ncnc21` (stereo not shown) [Example 267, 5-(4-Chlorophenyl)-7-{1-[3-(3-fluorophenyl)-1,2-oxazol-5-yl]ethyl}-7H-pyrrolo[2,3-d]pyrimidin-4-amine] are 5.95 and 6.87.
For the compound `Nc1ncnc2c1c(-c1ccc3[nH]ccc3c1)cn2Cc1cn(-c2ccccc2F)nn1` [Example 81, 7-{[1-(2-Fluorophenyl)-1H-1,2,3-triazol-4-yl]methyl}-5-(1H-indol-5-yl)-7H-pyrrolo[2,3-d]pyrimidin-4-amine], the pEC50 in experiment [1] is 6.42; in experiment [2], 6.47.
The corresponding values for `CCC(c1cn(-c2ccc(F)cc2F)nn1)n1c(C#N)c(-c2cnc(C(F)(F)F)nc2)c2c(N)ncnc21` (single isomer, unassigned) [Example 16, 4-Amino-7-{1-[1-(2,4-difluorophenyl)-1H-1,2,3-triazol-4-yl]propyl}-5-[2-(trifluoromethyl)pyrimidin-5-yl]-7H-pyrrolo[2,3-d] pyrimidin-6-carbonitrile] are 8.19 and 8.05.
With `CC(c1cc(-c2ccccc2F)no1)n1cc(-c2ccc(Cl)cc2)c2c(N)ncnc21` (single isomer, unassigned; enantiomer 2) [Example 182, (−)-5-(4-Chlorophenyl)-7-{1-[3-(2-fluorophenyl)-1,2-oxazol-5-yl]ethyl}-7H-pyrrolo[2,3-d]pyrimidin-4-amine, enantiomer 2], the pEC50 in experiment [1] is 6.33; in experiment [2], 6.35.
Turning to `CCC(c1cn(-c2cccc(F)c2F)nn1)n1cc(-c2cc(F)cnc2OC)c2c(N)ncnc21` (single isomer, unassigned; enantiomer 2) [Example 170, 7-{1-[1-(2,3-Difluorophenyl)-1H-1,2,3-triazol-4-yl]propyl}-5-(5-fluoro-2-methoxypyridin-3-yl)-7H-pyrrolo[2,3-d]pyrimidin-4-amine, enantiomer 2], the pEC50 in experiment [1] is 6.67; in experiment [2], 7.31.

The values above are taken from US12612409B2, “Pyrrolopyrimidines as CFTR potentiators” (Cystic Fibrosis Foundation, priority 2016, dated 2026).
